Measured values from patent publication US11077100B2, “Tetrahydroquinoline derivatives as P2X7 receptor antagonists” (RaQualia Pharma Inc., priority 2017, dated 2021).

Columns and labels:
human P2X7 = human P2X7 (Homo sapiens (Human), UniProt Q99572); experiment: Human P2X7 functional assay (Ca2+ influx, Fluo-4, FDSS); format: cell-based; conditions: antagonistic activity with respect to the human P2X7 receptor; BzATP final concentration 80 microM
Procedure, shortened: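 Ca2+ influx was triggered with BzATP (80 μM final) after a 10-min room-temperature compound preincubation and monitored with Fluo-4 (ex 480/em 540 nm) on FDSS. The cells were HEK293 stably carrying FLAG-tagged human P2X7. Duplicate-averaged 7-point dose-responses gave IC50s.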

rat P2X7 = rat P2X7 (Rattus norvegicus (Rat), UniProt Q64663); experiment: Rat P2X7 functional assay (Ca2+ influx, Fluo-4, FDSS); format: cell-based; conditions: HEK293 cells stably expressing rat P2X7; BzATP final 10 microM; 7-point dose-response; read-out: Antagonistic activities with respect to the rat P2X7 receptor (IC50)
rat P2X7, sequence (Q64663 whole entry): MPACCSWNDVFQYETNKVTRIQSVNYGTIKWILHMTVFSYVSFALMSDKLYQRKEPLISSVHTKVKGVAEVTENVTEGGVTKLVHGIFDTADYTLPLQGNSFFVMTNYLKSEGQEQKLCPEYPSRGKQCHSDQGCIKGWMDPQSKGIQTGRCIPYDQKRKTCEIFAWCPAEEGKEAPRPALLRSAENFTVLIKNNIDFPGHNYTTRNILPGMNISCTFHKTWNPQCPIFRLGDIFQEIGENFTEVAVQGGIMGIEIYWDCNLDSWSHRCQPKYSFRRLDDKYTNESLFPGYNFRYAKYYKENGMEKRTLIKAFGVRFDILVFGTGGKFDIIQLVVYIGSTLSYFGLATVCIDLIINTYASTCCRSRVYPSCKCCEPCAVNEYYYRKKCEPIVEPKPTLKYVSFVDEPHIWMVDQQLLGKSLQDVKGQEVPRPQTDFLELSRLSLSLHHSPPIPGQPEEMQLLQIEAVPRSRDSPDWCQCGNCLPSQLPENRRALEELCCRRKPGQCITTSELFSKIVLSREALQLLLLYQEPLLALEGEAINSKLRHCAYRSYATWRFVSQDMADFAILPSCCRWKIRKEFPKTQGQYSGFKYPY
Procedure: Rat P2X7 Functional Assay
The functional activity of compounds was determined by measuring changes in intracellular calcium concentration using a Ca^2+-sensitive fluorescent dye, Fluo-4 (Molecular Probes). The changes in fluorescent signal were monitored by the cell imaging technology by Hamamatsu Photonics's Functional Drug Screening System (FDSS). Increases in intracellular Ca^2+ concentration were readily detected upon activation with BzATP.
HEK293 cells stably expressing rat P2X7 (GenBank accession number NM_019256) were grown in Corning CellBIND cell culture flasks, in a 5% CO2 humidified incubator to about 80% confluence. Media composition consisted of Dulbecco's Modified Eagle Medium (high glucose), 10% fetal bovine serum ([…]), 100 units/[…] Penicillin, 100 microg/mL Streptomycin and 250 microg/mL Geneticine.
1. […] Plate-out HEK293-rat P2X7 cells (40 microL medium containing 5,000 cells per well) into poly-D-lysine coated 384-well plates (BD Falcon) at 24 h prior to assay.
2. Incubate at 37° C. in 5% CO2.
3. Incubate the plate at 37° C. in 5% CO2 for 1 h.
5. Test compounds were prepared at 100× the test concentration in DMSO by serial dilution with Biomek-FX liquid handling instrument. 33× diluted compound solutions in assay buffer were prepared in intermediate compound plate with Biomek-NX liquid handling instrument. A further 3× dilution occurred in below steps 6 and 7.
6. Add 20 microL of 33× diluted compound solutions into each well and leave the plate for 10 min under the dark at room temperature.
7. Measure activity by FDSS as follows: • Set the assay plate on the stacker of FDSS. • Start the detection of fluorescence intensity at 540 nm by 480 nm exicitation. • After 30 seconds, add 20 microL of assay buffer containing 30 microM BzATP (final 10 microM).
IC50 values for compounds of the present invention were determined from 7-point dose-response studies. Curves were generated using the average of duplicate wells for each data point. Finally, the IC50 values are calculated with the best-fit dose curve determined by XLfit (ID Business Solutions Ltd.).

human P2X7, sequence (Q99572 whole entry): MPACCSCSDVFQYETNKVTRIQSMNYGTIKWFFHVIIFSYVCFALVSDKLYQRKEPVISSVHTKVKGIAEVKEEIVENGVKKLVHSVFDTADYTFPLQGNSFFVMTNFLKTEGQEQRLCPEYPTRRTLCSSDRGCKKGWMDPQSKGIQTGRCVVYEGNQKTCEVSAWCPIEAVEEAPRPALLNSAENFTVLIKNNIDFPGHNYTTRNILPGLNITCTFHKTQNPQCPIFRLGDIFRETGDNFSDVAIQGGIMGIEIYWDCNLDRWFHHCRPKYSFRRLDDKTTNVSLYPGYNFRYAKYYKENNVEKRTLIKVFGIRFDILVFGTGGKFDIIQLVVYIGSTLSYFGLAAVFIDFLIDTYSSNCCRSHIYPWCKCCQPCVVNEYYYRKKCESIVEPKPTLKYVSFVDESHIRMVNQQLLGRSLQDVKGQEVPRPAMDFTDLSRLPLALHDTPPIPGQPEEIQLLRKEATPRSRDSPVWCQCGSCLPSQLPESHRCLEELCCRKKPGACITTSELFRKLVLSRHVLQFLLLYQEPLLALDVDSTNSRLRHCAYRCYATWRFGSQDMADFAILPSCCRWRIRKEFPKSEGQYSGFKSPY

SMILES	IC50 (human P2X7)	IC50 (rat P2X7)
COC[C@]1(O)CC[C@@](F)(C(=O)NCc2ccc(Cl)cc2Cl)c2cccnc21 (relative stereo) [Example 41, (5S*,8S*)-N-(2,4-dichlorobenzyl)-5-fluoro-8-hydroxy-8-(methoxymethyl)-5,6,7,8-tetrahydro-quinoline-5-carboxamide]	< 0.05 µM	< 1 µM
COC[C@]1(O)CC[C@@](F)(C(=O)NCc2ccc(F)cc2Cl)c2cccnc21 (relative stereo) [Example 42, (5S*,8S*)-N-(2-chloro-4-fluoro-benzyl)-5-fluoro-8-hydroxy-8-(methoxymethyl)-5,6,7,8-tetra-hydroquinoline-5-carboxamide]	< 0.05 µM	< 1 µM
O=C(NCc1ccc(Cl)cc1Cl)[C@]1(F)CC[C@@](O)(CN2CC(O)C2)c2ncccc21 (relative stereo) [Example 51, (5S*,8R*)-N-(2,4-dichlorobenzyl)-5-fluoro-8-hydroxy-8-((3-hydroxyaze-tidin-1-yl)methyl)-5,6,7,8-tetrahydro-quinoline-5-carboxamide]	< 0.05 µM	< 1 µM
O=C(NCc1ccc(F)cc1Cl)[C@]1(F)CC[C@@](O)(CN2CC(O)C2)c2ncccc21 (relative stereo) [Example 52, (5S*,8R*)-N-(2-chloro-4-fluorobenzyl)-5-fluoro-8-hy-droxy-8-((3-hydroxy-azetidin-1-yl)methyl)-5,6,7,8-tetrahydro-quinoline-5-carboxamide]	< 0.05 µM	< 1 µM
COC1CN(C[C@]2(O)CC[C@@](F)(C(=O)NCc3ccc(F)cc3Cl)c3cccnc32)C1 (relative stereo) [Example 53, (5S*,8R*)-N-(2-chloro-4-fluorobenzyl)-5-fluoro-8-hydroxy-8-((3-methoxy-azetidin-1-yl)methyl)-5,6,7,8-tetrahydro-quinoline-5-carboxamide]	< 0.05 µM	< 1 µM
CC1(O)CN(C[C@]2(O)CC[C@@](F)(C(=O)NCc3ccc(F)cc3Cl)c3cccnc32)C1 (relative stereo) [Example 54, (5S*,8R*)-N-(2-chloro-4-fluorobenzyl)-5-fluoro-8-hydroxy-8-((3-hydroxy-3-methylazetidin-1-yl)methyl)-5,6,7,8-tetra-hydroquinoline-5-carboxamide]	< 0.05 µM	< 1 µM
COC1(C)CN(C[C@]2(O)CC[C@@](F)(C(=O)NCc3ccc(F)cc3Cl)c3cccnc32)C1 (relative stereo) [Example 55, (5S*,8R*)-N-(2-chloro-4-fluorobenzyl)-5-fluoro-8-hydroxy-8-((3-methoxy-3-methylazetidin-1-yl)methyl)-5,6,7,8-tetra-hydroquinoline-5-carboxamide]	< 0.05 µM	< 1 µM
O=C(NCc1ccc(F)cc1Cl)[C@]1(F)CC[C@@](O)(CNCCO)c2ncccc21 (relative stereo) [Example 56, (5S*,8R*)-N-(2-chloro-4-fluorobenzyl)-5-fluoro-8-hydroxy-8-(((2-hydroxy-ethyl)amino)methyl)-5,6,7,8-tetrahydro-quinoline-5-carboxamide]	< 0.05 µM	< 1 µM
CN(CCO)C[C@]1(O)CC[C@@](F)(C(=O)NCc2ccc(F)cc2Cl)c2cccnc21 (relative stereo) [Example 57, (5S*,8R*)-N-(2-chloro-4-fluorobenzyl)-5-fluoro-8-hydroxy-8-(((2-hydroxyethyl)(meth-yl)amino)methyl)-5,6,7,8-tetrahydroquinoline-5-carboxamide]	< 0.05 µM	< 1 µM
O=C(NCc1c(Cl)cc(Cl)cc1CO)C1CCC(O)c2ncccc21 (centres unmarked) [Example 9, N-(2,4-dichloro-6-(hydroxy-methyl)benzyl)-8-hydroxy-5,6,7,8-tetrahydroquinoline-carboxamide]		< 1 µM
NC(=O)CC1CCC(C(=O)NCc2cccc(C(F)(F)F)c2Cl)c2cccnc21 (centres unmarked) [Example 32, (2-amino-2-oxoethyl)-N-(2-chloro-3-(trifluoro-methyl)benzyl)-5,6,7,8-tetra-hydroquinoline-5-carboxamide]		< 1 µM
C[C@]1(O)CC[C@@](F)(C(=O)NCc2c(F)cc(Cl)cc2Cl)c2cccnc21 [Example 265, (5S,8S)-N-(2,4-dichloro-6-fluorobenzyl)-5-fluoro-8-hydroxy-8-methyl-5,6,7,8-tetrahydroquinoline-5-carboxamide]		< 1 µM
C[C@]1(O)CC[C@@](F)(C(=O)NCc2c(F)cc(F)cc2Cl)c2cccnc21 [Example 266, (5S,8S)-N-(2-chloro-4,6-difluorobenzyl)-5-fluoro-8-hydroxy-8-methyl-5,6,7,8-tetrahydroquinoline-5-carboxamide]		< 1 µM
C[C@]1(O)CC[C@@](F)(C(=O)NCc2ccc(Cl)c(F)c2F)c2cccnc21 [Example 267, (5S,8S)-N-(4-chloro-2,3-difluorobenzyl)-5-fluoro-8-hydroxy-8-methyl-5,6,7,8-tetrahydroquinoline-5-carboxamide]		< 1 µM
C[C@]1(O)CC[C@@](F)(C(=O)NC2CC2c2ccc(Cl)cc2Cl)c2cccnc21 (stereo partly drawn) [Example 273, (5S,8S)-N-((trans)-2-(2,4-dichlorophenyl)cyclopropyl)-5-fluoro-8-hydroxy-8-methyl-5,6,7,8-tetrahydroquinoline-5-carboxamide]		< 1 µM
CO[C@H]1CC[C@@](F)(C(=O)NCc2c(F)cc(Cl)cc2Cl)c2cccnc21 [Example 335, (5S,8S)-N-(2,4-dichloro-6-fluorobenzyl)-5-fluoro-8-methoxy-5,6,7,8-tetrahydroquinoline-5-carboxamide]		< 1 µM
CS(=O)(=O)C1CC[C@@](F)(C(=O)NCc2ccc(Cl)cc2Cl)c2cccnc21 (some centres unmarked) [Example 350]		< 1 µM

Results, then the compound that gave them:

IC50 (human P2X7)	IC50 (rat P2X7)	SMILES
	< 1 µM	Cc1cc(Cl)cc(Cl)c1CNC(=O)[C@@]1(F)CC[C@@H](O)c2ncccc21 [Example 126, (5R,8R)-N-(2,4-dichloro-6-methylbenzyl)-5-fluoro-8-hydroxy-5,6,7,8-tetrahydroquinoline-5-carboxamide]
	< 1 µM	Cc1cc(Cl)cc(Cl)c1CNC(=O)[C@]1(F)CC[C@H](O)c2ncccc21 [Example 127, (5S,8S)-N-(2,4-dichloro-6-methylbenzyl)-fluoro-8-hydroxy-5,6,7,8-tetrahydroquinoline-5-carboxamide]
	< 1 µM	O=C(NCc1ccc(F)cc1C(F)(F)F)[C@]1(F)CC[C@H](O)c2ncccc21 [Example 144, (5S,8S)-5-fluoro-N-(4-fluoro-2-(trifluoromethyl)benzyl)-8-hydroxy-5,6,7,8-tetrahydroquinoline-5-carboxamide]
	< 1 µM	O=C(NCc1c(F)cc(Cl)cc1Cl)[C@]1(F)CC[C@H](O)c2ncccc21 [Example 152, (5S,8S)-N-(2,4-dichloro-6-fluorobenzyl)-5-fluoro-8-hydroxy-5,6,7,8-tetrahydroquinoline-5-carboxamide]
	< 1 µM	Cc1cccc(Cl)c1CNC(=O)[C@]1(F)CC[C@H](O)c2ncccc21 [Example 161, (5S,8S)-N-(2-chloro-6-methylbenzyl)-5-fluoro-8-hydroxy-5,6,7,8-tetrahydroquinoline-5-carboxamide]
	< 1 µM	O=C(NCc1ccc(F)c(F)c1Cl)[C@]1(F)CC[C@H](O)c2ncccc21 [Example 174, (5S,8S)-N-(2-chloro-3,4-difluorobenzyl)-5-fluoro-8-hydroxy-5,6,7,8-tetrahydroquinoline-5-carboxamide]
	< 1 µM	O=C(NCc1cccc(C(F)(F)F)c1F)[C@]1(F)CC[C@H](O)c2ncccc21 [Example 175, (5S,8S)-5-fluoro-N-(2-fluoro-3-(trifluoromethyl)benzyl)-8-hydroxy-5,6,7,8-tetrahydroquinoline-5-carboxamide]
	< 1 µM	O=C(NCc1ccc(C(F)(F)F)cc1Cl)[C@]1(F)CC[C@H](O)c2ncccc21 [Example 187, (5S,8S)-N-(2-chloro-4-(trifluoromethyl)benzyl)-5-fluoro-8-hydroxy-5,6,7,8-tetrahydroquinoline-5-carboxamide]
0.05 to 0.1 µM		O=C(NCc1cccc(Cl)c1Cl)[C@@]1(F)CC[C@H](F)c2ncccc21 [Example 354, (5R,8S)-N-(2,3-dichlorobenzyl)-5.8-difluoro-5,6,7,8-tetrahydroquinaline-5-carboxamide]
